IC50, activity and inhibition data for 13 compounds are collected here from patent US20260297081A1, “COMPOUNDS AND METHODS OF TREATING CANCERS” (Cullgen Inc., priority 2023, published 2026).

Holding throughout (assay type): cell-based
For one test, the system named is MCF7 cells. Description: Anti-proliferation (viability) of MCF7 cells (Table 7, FIG. 2B). As to conditions: Homo sapiens, MCF7, MCF7 cells, 3-6 days, 10-point serial dilution; read-out: GI IC50 in MCF-7.
The subject of another test is Calu-1 cells. Description: Anti-proliferation (viability) of NSCLC Calu-1 cells, 3 days (Table 7, FIG. 2B). The following applies: Homo sapiens, 72 h; Calu-1 cells, 3 days, 10-point serial dilution; read-out: GI IC50 in Calu-1. An outline of the steps:
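Heterobifunctional compounds are tested in 10-point serial dilutions on Calu-1 (3-day exposure) and T47D (6-day exposure) cells.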

The target in test [1] is T1, CDK4 (Homo sapiens, UniProt P11802+Q16531). Description: HiBiT detection of HiBiT-tagged CDK4 protein level in MCF7 cells, 16 hours (Table 8). On the set-up: expressed in transfected cells; host or cells: MCF7. The following applies: MCF7 cells stably expressing HiBiT tagged target proteins; for activity at 0.01 µM: 10 nM, read-out: % CDK4 Relative Level (10 nM); for activity at 0.1 µM: 100 nM, read-out: % CDK4 Relative Level (100 nM). How it is done:
HiBiT detection system quantitatively measures total amounts of HiBiT-tagged proteins using a luminescent based method. MCF7 cells stably expressing HiBiT tagged target proteins were treated with heterobifunctional compounds at indicated concentrations for 16 hours, then lysed with Nano-Glo HiBiT Lytic detection reagents.
Target sequence in this assay (P11802 whole entry): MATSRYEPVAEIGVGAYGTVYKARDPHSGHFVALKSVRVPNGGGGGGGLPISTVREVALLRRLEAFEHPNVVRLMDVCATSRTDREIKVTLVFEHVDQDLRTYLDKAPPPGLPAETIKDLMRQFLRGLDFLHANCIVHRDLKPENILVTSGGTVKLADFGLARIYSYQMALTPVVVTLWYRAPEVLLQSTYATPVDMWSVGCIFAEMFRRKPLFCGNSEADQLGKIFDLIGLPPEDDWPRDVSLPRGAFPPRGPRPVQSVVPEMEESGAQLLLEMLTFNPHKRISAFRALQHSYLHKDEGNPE
Target sequence in this assay (P24385 whole entry partner): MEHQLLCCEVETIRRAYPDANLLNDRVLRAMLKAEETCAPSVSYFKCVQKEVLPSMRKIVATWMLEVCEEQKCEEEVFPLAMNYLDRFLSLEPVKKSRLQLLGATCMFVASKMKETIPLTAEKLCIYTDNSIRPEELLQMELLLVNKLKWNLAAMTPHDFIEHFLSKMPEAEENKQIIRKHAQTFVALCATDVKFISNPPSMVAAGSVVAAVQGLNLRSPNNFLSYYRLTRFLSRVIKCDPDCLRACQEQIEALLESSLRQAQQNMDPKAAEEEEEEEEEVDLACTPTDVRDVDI
Target sequence in this assay (Q16531 2-1140 limits assumed): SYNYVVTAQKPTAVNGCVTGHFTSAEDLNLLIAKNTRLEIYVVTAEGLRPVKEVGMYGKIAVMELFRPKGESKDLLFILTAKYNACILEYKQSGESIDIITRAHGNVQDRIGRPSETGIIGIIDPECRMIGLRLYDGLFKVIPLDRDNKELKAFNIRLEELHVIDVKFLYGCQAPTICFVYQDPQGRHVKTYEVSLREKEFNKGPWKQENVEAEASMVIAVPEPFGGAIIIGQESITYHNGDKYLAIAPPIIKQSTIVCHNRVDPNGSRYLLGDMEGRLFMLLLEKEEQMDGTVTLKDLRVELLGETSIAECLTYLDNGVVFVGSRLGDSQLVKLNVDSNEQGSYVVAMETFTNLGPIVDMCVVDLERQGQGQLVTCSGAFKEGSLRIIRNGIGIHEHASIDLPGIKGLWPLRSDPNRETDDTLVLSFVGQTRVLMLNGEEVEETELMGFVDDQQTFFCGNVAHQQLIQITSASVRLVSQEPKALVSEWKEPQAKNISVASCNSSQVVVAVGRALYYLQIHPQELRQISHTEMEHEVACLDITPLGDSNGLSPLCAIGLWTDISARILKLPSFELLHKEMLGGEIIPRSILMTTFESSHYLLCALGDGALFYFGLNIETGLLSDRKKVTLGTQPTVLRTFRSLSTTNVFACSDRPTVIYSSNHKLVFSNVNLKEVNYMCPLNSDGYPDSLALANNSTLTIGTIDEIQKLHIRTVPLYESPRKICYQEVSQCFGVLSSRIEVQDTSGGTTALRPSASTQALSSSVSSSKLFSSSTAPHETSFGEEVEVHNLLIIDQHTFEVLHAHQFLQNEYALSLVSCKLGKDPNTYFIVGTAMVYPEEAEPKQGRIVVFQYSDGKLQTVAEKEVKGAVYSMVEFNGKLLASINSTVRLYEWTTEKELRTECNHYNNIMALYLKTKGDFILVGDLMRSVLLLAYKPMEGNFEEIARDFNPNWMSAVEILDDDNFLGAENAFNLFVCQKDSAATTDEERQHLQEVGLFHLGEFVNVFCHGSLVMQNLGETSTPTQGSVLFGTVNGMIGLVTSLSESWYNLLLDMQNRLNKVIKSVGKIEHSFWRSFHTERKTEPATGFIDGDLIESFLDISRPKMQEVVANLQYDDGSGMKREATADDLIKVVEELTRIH

Test [2] addresses T1, CDK4. As to the kind of experiment: CDK4 percentage degradation in Calu-1 cells (Table 6). Also on record: Cells that express cyclin D1-3 and CDK4/6 proteins were treated with heterobifunctional compounds; endogenous in cells; host or cells: Calu-1. The following applies: 16 hours; for inhibition at 0.04 µM: 40 nM; for inhibition at 0.2 µM: 200 nM. An outline of the steps:
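Calu-1 cells exposed to heterobifunctional compounds at 40 nM or 200 nM for 16 h. Cyclin D1 and CDK4 levels measured by Western blot of RIPA lysates (BCA-normalised loading), bands quantified by densitometry and expressed as percentage degradation.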
Target sequence in this assay (P11802 2-303 limits assumed): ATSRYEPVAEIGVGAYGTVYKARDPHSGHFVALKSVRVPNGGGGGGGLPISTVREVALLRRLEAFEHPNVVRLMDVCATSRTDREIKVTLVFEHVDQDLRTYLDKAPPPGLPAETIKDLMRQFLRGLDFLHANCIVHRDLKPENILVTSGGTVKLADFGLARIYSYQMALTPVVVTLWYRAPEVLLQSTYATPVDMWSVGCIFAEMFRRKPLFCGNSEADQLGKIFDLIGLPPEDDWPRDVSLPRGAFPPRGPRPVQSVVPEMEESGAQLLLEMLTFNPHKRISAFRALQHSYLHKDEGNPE
Target sequence in this assay (P24385 whole entry partner): as the sequence (P24385 whole entry partner) above
Target sequence in this assay (Q16531 2-1140 limits assumed): as the sequence (Q16531 2-1140 limits assumed) above

Usually IC50 stands for the concentration needed to halve the response being measured. By inhibition is commonly meant the drop in the measured response relative to a control, in per cent.

Take `CC(=O)c1c(C)c2cnc(Nc3ccc(N4CCN(C5CCN(C(=O)[C@H]6CC[C@H](Nc7nc(NC(C)C)ccc7C(=O)Nc7cc8n(n7)CCC8)CC6)C5)CC4)cn3)nc2n(C2CCCC2)c1=O` (stereo partly drawn) [CPD-520, 2-((trans-4-(3-(4-(6-((6-acetyl-8-cyclopentyl-5-methyl-7-oxo-7,8-dihydropyrido[2,3-d]pyrimidin-2-yl)amino)pyridin-3-yl)piperazin-1-yl)pyrrolidine-1-carbonyl)cyclohexyl)amino)-N-(5,6-dihydro-4H-pyrrolo[1,2-b]pyrazol-2-yl)-6-(isopropylamino)nicotinamide]: the IC50 in the test on MCF7 cells was less than 50 nM. Besides, the IC50 with Calu-1 cells is no more than 10 nM. Further, at CDK4 [1], the activity at 0.01 µM was greater than 85% and the activity at 0.1 µM was greater than 85%.
Consider `[2H]C([2H])([2H])Nc1ccc(C(=O)Nc2ccc(N(C)C)nn2)c(NC2CCN(CC(=O)N3CCN(Cc4ccc(Nc5ncc6c(C)c(C(C)=O)c(=O)n(C7CCCC7)c6n5)nc4)CC3)CC2)n1` [CPD-491], for which the IC50 in the test with MCF7 cells is less than 50 nM; with Calu-1 cells it was no more than 10 nM. Further, on CDK4 [1], the activity at 0.01 µM is greater than 85%. For the same compound, the activity at 0.1 µM at CDK4 [1] is greater than 85%.
Regarding `CC(=O)c1c(C)c2cnc(Nc3ccc(CN4CCN(CC(=O)N5CCC6(CC(Nc7nc(NC(C)C)ccc7C(=O)Nc7ccc(N(C)C)nn7)C6)C5)CC4)cn3)nc2n(C2CCCC2)c1=O` (stereo not shown) [CPD-570, 2-((6-(2-(4-((6-((6-acetyl-8-cyclopentyl-5-methyl-7-oxo-7,8-dihydropyrido[2,3-d]pyrimidin-2-yl)amino)pyridin-3-yl)methyl)piperazin-1-yl)acetyl)-6-azaspiro[3.4]octan-2-yl)amino)-N-(6-(dimethylamino)pyridazin-3-yl)-6-(isopropylamino)nicotinamide], in the test on MCF7 cells, the IC50 is less than 50 nM. Further, the IC50 in the test on Calu-1 cells was no more than 10 nM. At CDK4 [1], the activity at 0.01 µM was greater than 85% and the activity at 0.1 µM was in the range of 55 to 85%.
For `CC(=O)c1c(C)c2cnc(Nc3ccc(N4CCN(CCC(=O)NC56CC(Nc7nc(NC(C)C)ccc7C(=O)Nc7ccc(N(C)C)nn7)(C5)C6)CC4)cn3)nc2n(C2CCCC2)c1=O` [CPD-503, 2-((3-(3-(4-(6-((6-acetyl-8-cyclopentyl-5-methyl-7-oxo-7,8-dihydropyrido[2,3-d]pyrimidin-2-yl)amino)pyridin-3-yl)piperazin-1-yl)propanamido)bicyclo[1.1.1]pentan-1-yl)amino)-N-(6-(dimethylamino)pyridazin-3-yl)-6-(isopropylamino)nicotinamide], in that order: less than 50 nM, no more than 10 nM, 55 to 85% and 55 to 85%.
`CC(=O)c1c(C)c2cnc(Nc3ccc(CN4CCN(CC(=O)N5CC6(CCC(Nc7nc(NC(C)C)ccc7C(=O)Nc7ccc(N(C)C)nn7)C6)C5)CC4)cn3)nc2n(C2CCCC2)c1=O` (stereo not shown) [CPD-515, 2-((2-(2-(4-((6-((6-acetyl-8-cyclopentyl-5-methyl-7-oxo-7,8-dihydropyrido[2,3-d]pyrimidin-2-yl)amino)pyridin-3-yl)methyl)piperazin-1-yl)acetyl)-2-azaspiro[3.4]octan-6-yl)amino)-N-(6-(dimethylamino)pyridazin-3-yl)-6-(isopropylamino)nicotinamide]: the IC50 with MCF7 cells was less than 50 nM. Besides, the half-maximal inhibitory concentration (IC50) in the test with Calu-1 cells was no more than 10 nM. Moreover, at CDK4 [1], the activity at 0.01 µM is greater than 85% and the activity at 0.1 µM is greater than 85%.
With `CCc1ccc(C(=O)Nc2ccc(N(C)C)nn2)c(N[C@H]2CC[C@H](C(=O)N3CCC(N4CCN(c5ccc(Nc6ncc7c(C)c(C(C)=O)c(=O)n(C8CCCC8)c7n6)nc5)CC4)C3)CC2)n1` (stereo partly shown) [CPD-492, 2-((4-(3-(4-(6-((6-acetyl-8-cyclopentyl-5-methyl-7-oxo-7,8-dihydropyrido[2,3-d]pyrimidin-2-yl)amino)pyridin-3-yl)piperazin-1-yl)pyrrolidine-1-carbonyl)cyclohexyl)amino)-N-(6-(dimethylamino)pyridazin-3-yl)-6-ethylnicotinamide], the IC50 with MCF7 cells is less than 50 nM; in the test on Calu-1 cells it was no more than 10 nM. For the same compound, the activity at 0.01 µM on CDK4 [1] was greater than 85%. For the same compound, the activity at 0.1 µM on CDK4 [1] is greater than 85%.
As to `CC(=O)c1c(C)c2cnc(Nc3ccc(N4CCN(C5CCN(C(=O)[C@H]6CC[C@H](Nc7nc(NC(C)C)ccc7C(=O)Nc7cn(C)c(C8CC8)n7)CC6)C5)CC4)cn3)nc2n(C2CCCC2)c1=O` (stereo partly shown) [CPD-481, 2-((4-(3-(4-(6-((6-acetyl-8-cyclopentyl-5-methyl-7-oxo-7,8-dihydropyrido[2,3-d]pyrimidin-2-yl)amino)pyridin-3-yl)piperazin-1-yl)pyrrolidine-1-carbonyl)cyclohexyl)amino)-N-(2-cyclopropyl-1-methyl-1H-imidazol-4-yl)-6-(isopropylamino)nicotinamide], the IC50 in the test with MCF7 cells is less than 50 nM. For the same compound, the IC50 in the test with Calu-1 cells was no more than 10 nM. On CDK4 [1], the activity at 0.01 µM is greater than 85% and the activity at 0.1 µM was greater than 85%.
Turning to `CC(=O)c1c(C)c2cnc(Nc3ccc(N4CCC(N(C)CC(=O)NC56CC(Nc7nc(NC(C)C)ccc7C(=O)Nc7ccc(N(C)C)nn7)(C5)C6)CC4)cn3)nc2n(C2CCCC2)c1=O` [CPD-505, 2-((3-(2-((1-(6-((6-acetyl-8-cyclopentyl-5-methyl-7-oxo-7,8-dihydropyrido[2,3-d]pyrimidin-2-yl)amino)pyridin-3-yl)piperidin-4-yl)(methyl)amino)acetamido)bicyclo[1.1.1]pentan-1-yl)amino)-N-(6-(dimethylamino)pyridazin-3-yl)-6-(isopropylamino)nicotinamide], the IC50 with MCF7 cells was less than 50 nM. In addition, in the test with Calu-1 cells, the IC50 is no more than 10 nM. Besides, at CDK4 [1], the activity at 0.01 µM was greater than 85% and the activity at 0.1 µM is greater than 85%.
Take `CC(=O)c1c(C)c2cnc(Nc3ccc(C(C)N4CCN(CC(=O)N5CCC6(CCC(Nc7nc(NC(C)C)ccc7C(=O)Nc7ccc(N(C)C)nn7)C6)C5)CC4)cn3)nc2n(C2CCCC2)c1=O` (stereo not shown) [CPD-551, 2-((2-(2-(4-(1-(6-((6-acetyl-8-cyclopentyl-5-methyl-7-oxo-7,8-dihydropyrido[2,3-d]pyrimidin-2-yl)amino)pyridin-3-yl)ethyl)piperazin-1-yl)acetyl)-2-azaspiro[4.4]nonan-7-yl)amino)-N-(6-(dimethylamino)pyridazin-3-yl)-6-(isopropylamino)nicotinamide]: in the test on MCF7 cells, the concentration for half-maximal inhibition (IC50) is less than 50 nM. Further, in the test on Calu-1 cells, the IC50 was no more than 10 nM. At CDK4 [1], the activity at 0.01 µM was greater than 85% and the activity at 0.1 µM is 55 to 85%.
On CDK4 [2], `CC(=O)c1c(C)c2cnc(Nc3ccc(N4CCN(CC(=O)NC5CC6(C5)CC(Nc5nc(NC(C)C)ccc5C(=O)Nc5cccc(C)n5)C6)CC4)cn3)nc2n(C2CCCC2)c1=O` (stereo not shown) [CPD-190, 2-((6-(2-(4-(6-((6-acetyl-8-cyclopentyl-5-methyl-7-oxo-7,8-dihydropyrido[2,3-d]pyrimidin-2-yl)amino)pyridin-3-yl)piperazin-1-yl)acetamido)spiro[3.3]heptan-2-yl)amino)-6-(isopropylamino)-N-(6-methylpyridin-2-yl)nicotinamide] yielded an inhibition at 0.04 µM of 50 to 80% and an inhibition at 0.2 µM of 50 to 80%. Also, in the test with MCF7 cells, the IC50 lay in the range of 50 to 100 nM. In addition, the IC50 in the test on Calu-1 cells was no more than 10 nM.
As for `CNc1ccc(C(=O)Nc2ccc(N(C)C)nn2)c(NC2CC3(CC(NC(=O)C(C)(C)N4CCN(c5ccc(Nc6ncc7c(C)c(C(C)=O)c(=O)n(C8CCCC8)c7n6)nc5)CC4)C3)C2)n1` (stereo not shown) [CPD-174, 2-((6-(2-(4-(6-((6-acetyl-8-cyclopentyl-5-methyl-7-oxo-7,8-dihydropyrido[2,3-d]pyrimidin-2-yl)amino)pyridin-3-yl)piperazin-1-yl)-2-methylpropanamido)spiro[3.3]heptan-2-yl)amino)-N-(6-(dimethylamino)pyridazin-3-yl)-6-(methylamino)nicotinamide], on CDK4 [2], the inhibition at 0.04 µM is 50 to 80% and the inhibition at 0.2 µM was greater than 80%. Further, in the test with MCF7 cells, the IC50 was greater than 100 nM. In addition, the IC50 in the test with Calu-1 cells fell in the range of 10 to 50 nM.
In the same order, the values of `CNc1ccc(C(=O)Nc2ccc(N(C)C)nn2)c(NC2CC(NC(=O)CCN3CCN(c4ccc(Nc5ncc6c(C)c(C(C)=O)c(=O)n(C7CCCC7)c6n5)nc4)CC3)C2)n1` (stereo not shown) [CPD-150, 2-((3-(3-(4-(6-((6-acetyl-8-cyclopentyl-5-methyl-7-oxo-7,8-dihydropyrido[2,3-d]pyrimidin-2-yl)amino)pyridin-3-yl)piperazin-1-yl)propanamido)cyclobutyl)amino)-N-(6-(dimethylamino)pyridazin-3-yl)-6-(methylamino)nicotinamide] are 50 to 80%, greater than 80%, 50 to 100 nM and no more than 10 nM.
In the same order, the values of `CNc1ccc(C(=O)Nc2ccc(N(C)C)nn2)c(NC2CC(C(=O)NCCN3CCN(c4ccc(Nc5ncc6c(C)c(C(C)=O)c(=O)n(C7CCCC7)c6n5)nc4)CC3)C2)n1` (stereo not shown) [CPD-157, 2-((3-((2-(4-(6-((6-acetyl-8-cyclopentyl-5-methyl-7-oxo-7,8-dihydropyrido[2,3-d]pyrimidin-2-yl)amino)pyridin-3-yl)piperazin-1-yl)ethyl)carbamoyl)cyclobutyl)amino)-N-(6-(dimethylamino)pyridazin-3-yl)-6-(methylamino)nicotinamide] are 50 to 80%, greater than 80%, 50 to 100 nM and no more than 10 nM.
